{
  "source": "ChEMBL document CHEMBL4706663",
  "about": "“Large-scale isolation and antitumor mechanism evaluation of compounds from the traditional Chinese medicine Cordyceps Militaris” (Eur J Med Chem, 2021)",
  "key": {"A549": {"system": "A549", "test": "Antiproliferative activity against human A549 cells assessed as inhibition of cell growth at 12.5 ug/ml measured after 48 hrs by real-time cell analysis relative to control", "format": "functional", "conditions": "read-out: GI"}, "HepG2": {"system": "HepG2", "test": "Antiproliferative activity against human HepG2 cells assessed as inhibition of cell growth at 12.5 ug/ml measured after 48 hrs by real-time cell analysis relative to control", "format": "functional", "conditions": "read-out: GI"}, "Mus musculus [1]": {"system": "Mus musculus", "test": "Anti-insomnia activity pentobarbital-induced mouse model of insomnia assessed as time of sleep latency at 8 mg/kg, ig administered daily for 15 days followed by pentobarbital addition at 1 hr post last dose (reference value: 8.1 +/- 6.06 min)", "format": "functional", "conditions": "time 15 day"}, "Mus musculus [2]": {"system": "Mus musculus", "test": "Anti-insomnia activity pentobarbital-induced mouse model of insomnia assessed as number of forelimb lifts at 32 mg/kg, ig administered daily for 15 days followed by pentobarbital addition at 1 hr post last dose (reference value: 9.2 +/- 4.31)", "format": "functional", "conditions": "time 15 day"}, "Mus musculus [3]": {"system": "Mus musculus", "test": "Anti-insomnia activity pentobarbital-induced mouse model of insomnia assessed as time of sleep duration at 16 mg/kg, ig administered daily for 15 days followed by pentobarbital addition at 1 hr post last dose (reference value: 17.1 +/- 5.15 min)", "format": "functional", "conditions": "time 15 day"}, "Mus musculus [4]": {"system": "Mus musculus", "test": "Anti-insomnia activity pentobarbital-induced mouse model of insomnia assessed as number of forelimb lifts at 8 mg/kg, ig administered daily for 15 days followed by pentobarbital addition at 1 hr post last dose (reference value: 9.2 +/- 4.31)", "format": "functional", "conditions": "time 15 day"}, "Mus musculus [5]": {"system": "Mus musculus", "test": "Anti-insomnia activity pentobarbital-induced mouse model of insomnia assessed as time of sleep duration at 32 mg/kg, ig administered daily for 15 days followed by pentobarbital addition at 1 hr post last dose (reference value: 17.1 +/- 5.15 min)", "format": "functional", "conditions": "time 15 day"}, "Mus musculus [6]": {"system": "Mus musculus", "test": "Anti-insomnia activity pentobarbital-induced mouse model of insomnia assessed as sleep rate at 16 mg/kg, ig administered daily for 15 days followed by pentobarbital addition at 1 hr post last dose relative to control", "format": "functional", "conditions": "time 15 day"}, "Mus musculus [7]": {"system": "Mus musculus", "test": "Anti-insomnia activity pentobarbital-induced mouse model of insomnia assessed as number of forelimb lifts at 16 mg/kg, ig administered daily for 15 days followed by pentobarbital addition at 1 hr post last dose (reference value: 9.2 +/- 4.31)", "format": "functional", "conditions": "time 15 day"}, "Mus musculus [8]": {"system": "Mus musculus", "test": "Anti-insomnia activity pentobarbital-induced ig dosed mouse model of insomnia assessed as increase in sleep time administered daily for 15 days followed by pentobarbital addition at 1 hr post last dose", "format": "functional, organism-based", "conditions": "dose 8-32 mg/kg, time 15.0 day"}, "Mus musculus [9]": {"system": "Mus musculus", "test": "Anti-insomnia activity pentobarbital-induced mouse model of insomnia assessed as sleep rate at 32 mg/kg, ig administered daily for 15 days followed by pentobarbital addition at 1 hr post last dose relative to control", "format": "functional", "conditions": "time 15 day"}, "Mus musculus [10]": {"system": "Mus musculus", "test": "Anti-insomnia activity pentobarbital-induced ig dosed mouse model of insomnia assessed as reduction in time before sleep administered daily for 15 days followed by pentobarbital addition at 1 hr post last dose", "format": "functional, organism-based", "conditions": "dose 8-32 mg/kg, time 15.0 day"}, "Mus musculus [11]": {"system": "Mus musculus", "test": "Anti-insomnia activity pentobarbital-induced mouse model of insomnia assessed as time of sleep latency at 16 mg/kg, ig administered daily for 15 days followed by pentobarbital addition at 1 hr post last dose (reference value: 8.1 +/- 6.06 min)", "format": "functional", "conditions": "time 15 day"}, "Mus musculus [12]": {"system": "Mus musculus", "test": "Anti-insomnia activity pentobarbital-induced mouse model of insomnia assessed as time of sleep latency at 32 mg/kg, ig administered daily for 15 days followed by pentobarbital addition at 1 hr post last dose (reference value: 8.1 +/- 6.06 min)", "format": "functional", "conditions": "time 15 day"}, "Mus musculus [13]": {"system": "Mus musculus", "test": "Anti-insomnia activity pentobarbital-induced mouse model of insomnia assessed as sleep rate at 8 mg/kg, ig administered daily for 15 days followed by pentobarbital addition at 1 hr post last dose relative to control", "format": "functional", "conditions": "time 15 day"}, "Mus musculus [14]": {"system": "Mus musculus", "test": "Anti-insomnia activity pentobarbital-induced mouse model of insomnia assessed as time of sleep duration at 8 mg/kg, ig administered daily for 15 days followed by pentobarbital addition at 1 hr post last dose (reference value: 17.1 +/- 5.15 min)", "format": "functional", "conditions": "time 15 day"}, "[15]": {"test": "Toxicity in human Lewis lung cancer cells xenografted BALB/c mouse assessed as survival rate at 20 mg/kg, ig administered every day for 10 days (reference value: 100%)", "conditions": "in vivo, po"}, "[16]": {"test": "Antitumor activity against human H22 cells xenografted in KM mouse assessed as tumor growth inhibition at 20 mg/kg, ig administered every day for 10 days relative to control", "conditions": "H22, po, 240 h, read-out: TGI"}, "[17]": {"test": "Toxicity in human H22 cells xenografted KM mouse assessed as survival rate at 20 mg/kg, ig administered every day for 10 days relative to control", "conditions": "in vivo, po"}, "[18]": {"test": "Antitumor activity against human Lewis lung cancer cells xenografted in BALB/c mouse assessed as tumor growth inhibition at 20 mg/kg, ig administered every day for 10 days relative to control", "conditions": "Lewis lung carcinoma, po, 240 h, read-out: TGI"}, "Mus musculus [19]": {"system": "Mus musculus", "test": "Anti-insomnia activity pentobarbital-induced mouse model of insomnia assessed as time of sleep duration at 0.029 mg/kg, ig administered daily for 15 days followed by pentobarbital addition at 1 hr post last dose (reference value: 17.1 +/- 5.15 min)", "format": "functional", "conditions": "time 15 day"}, "Mus musculus [20]": {"system": "Mus musculus", "test": "Anti-insomnia activity pentobarbital-induced mouse model of insomnia assessed as sleep rate at 0.029 mg/kg, ig administered daily for 15 days followed by pentobarbital addition at 1 hr post last dose relative to control", "format": "functional", "conditions": "time 15 day"}, "Mus musculus [21]": {"system": "Mus musculus", "test": "Anti-insomnia activity pentobarbital-induced mouse model of insomnia assessed as number of forelimb lifts at 0.029 mg/kg, ig administered daily for 15 days followed by pentobarbital addition at 1 hr post last dose (reference value: 9.2 +/- 4.31)", "format": "functional", "conditions": "time 15 day"}, "Mus musculus [22]": {"system": "Mus musculus", "test": "Anti-insomnia activity pentobarbital-induced mouse model of insomnia assessed as time of sleep latency at 0.029 mg/kg, ig administered daily for 15 days followed by pentobarbital addition at 1 hr post last dose (reference value: 8.1 +/- 6.06 min)", "format": "functional", "conditions": "time 15 day"}},
  "data": [
    {"smiles": "CC(C)[C@@H](C)/C=C/[C@@H](C)[C@H]1CC[C@H]2C3=CC(=O)[C@@]4(O)C[C@@H](O)CC[C@]4(C)[C@H]3CC[C@]12C", "values": [
      {"measurement": "inhibition of growth at 12.5 µg/mL", "setting": "A549", "value": 100, "unit": "%"},
      {"measurement": "inhibition of growth at 12.5 µg/mL", "setting": "HepG2", "value": 100, "unit": "%"}
    ]},
    {"smiles": "OCCNc1ncnc2c1ncn2[C@@H]1O[C@H](CO)[C@@H](O)[C@H]1O", "values": [
      {"measurement": "Time", "setting": "Mus musculus [1]", "value": 5.7, "unit": "min"},
      {"measurement": "Activity", "setting": "Mus musculus [2]", "value": 3.3},
      {"measurement": "Time", "setting": "Mus musculus [3]", "value": 26.2, "unit": "min"},
      {"measurement": "Activity", "setting": "Mus musculus [4]", "value": 9},
      {"measurement": "Time", "setting": "Mus musculus [5]", "value": 34.5, "unit": "min"},
      {"measurement": "Activity", "setting": "Mus musculus [6]", "value": 40, "unit": "%"},
      {"measurement": "Activity", "setting": "Mus musculus [7]", "value": 3.9},
      {"measurement": "Activity", "setting": "Mus musculus [8]", "value": "Dose-dependent effect"},
      {"measurement": "Activity", "setting": "Mus musculus [9]", "value": 60, "unit": "%"},
      {"measurement": "Activity", "setting": "Mus musculus [10]", "value": "Dose-dependent effect"},
      {"measurement": "Time", "setting": "Mus musculus [11]", "value": 5.2, "unit": "min"},
      {"measurement": "Time", "setting": "Mus musculus [12]", "value": 5.1, "unit": "min"},
      {"measurement": "Activity", "setting": "Mus musculus [13]", "value": 20, "unit": "%"},
      {"measurement": "Time", "setting": "Mus musculus [14]", "value": 24.2, "unit": "min"}
    ]},
    {"smiles": "C/C(=C\\[C@@H](C)[C@H]1CC[C@@H]2[C@]1(C)CC[C@H]1[C@]23C=C[C@]2(C[C@@H](O)CC[C@]12C)OO3)[C@H](C)C(C)C", "values": [
      {"measurement": "inhibition of growth at 12.5 µg/mL", "setting": "A549", "value": 100, "unit": "%"},
      {"measurement": "inhibition of growth at 12.5 µg/mL", "setting": "HepG2", "value": 100, "unit": "%"}
    ]},
    {"smiles": "O=P1(N(CCCl)CCCl)NCCCO1", "note": "(stereo unspecified) [CYCLOPHOSPHAMIDE ANHYDROUS]", "values": [
      {"measurement": "survival at 240 h", "setting": "[15]", "value": 100, "unit": "%"},
      {"measurement": "inhibition in vivo at 20 mg/kg", "setting": "[16]", "value": 52.9, "unit": "%"},
      {"measurement": "survival at 240 h", "setting": "[17]", "value": 100, "unit": "%"},
      {"measurement": "inhibition in vivo at 20 mg/kg", "setting": "[18]", "value": 46.3, "unit": "%"}
    ]},
    {"smiles": "Clc1ccc2c(c1)C(c1ccccc1)=NCc1nncn1-2", "note": "[ESTAZOLAM]", "values": [
      {"measurement": "Time", "setting": "Mus musculus [19]", "value": 26, "unit": "min"},
      {"measurement": "Activity", "setting": "Mus musculus [20]", "value": 60, "unit": "%"},
      {"measurement": "Activity", "setting": "Mus musculus [21]", "value": 4.1},
      {"measurement": "Time", "setting": "Mus musculus [22]", "value": 5.9, "unit": "min"}
    ]}
  ]
}
